Test results as given in ChEMBL document CHEMBL4732115, “Discovery of novel cell-penetrating and tumor-targeting peptide-drug conjugate (PDC) for programmable delivery of paclitaxel and cancer treatment” (Eur J Med Chem, 2021).
The source made the active and inactive calls. The rule behind the calls is not given here. Peptide text beside a SMILES is read from it. * marks the point of attachment. X1 = CC(=O)O[C@H]1C(=O)[C@@]2(C)[C@H]([C@H](OC(=O)c3ccccc3)[C@]3(O)C[C@H](OC(=O)[C@H](OC(=O)OCCS*)[C@@H](NC(=O)c4ccccc4)c4ccccc4)C(C)=C1C3(C)C)[C@]1(OC(C)=O)CO[C@@H]1C[C@@H]2O; X2 = NCCCC[C@H](N*)C(=O)NC(=O)C1CCC(=O)N1

How the values were obtained:
[1] = target: 72 kDa type IV collagenase (Homo sapiens, UniProt P08253); assay: Drug metabolism in PBS buffer assessed as MMP2 (unknown origin)-mediated PTX formation at 0.5 uM incubated for 2 hrs followed by GSH addition and measured after 2 hrs by LC-MS analysis; type: ADME; details: 4 h
[2] = Myelosuppression in BALB/c mouse assessed as change in lymphocyte count at 12 umol/kg, ip administered every two days for 14 days measured post last dose; type: ADME, organism-based; details: in vivo, 336 h, dose 12 µmol/kg, time 14 day
MCF7 [3] = assay: Antitumor activity against human MCF7 cells xenografted in ip dosed BALB/c nude mouse assessed as tumor shrinkage administered every two days for two weeks; type: functional, organism-based; details: dose 8-12 µmol/kg, time 2.0 weeks
MCF7 [4] = assay: Induction of apoptosis in human MCF7 cells at IC50 measured after 4 hrs by Annexin-V FITC/propidium iodide staining based flow cytometry; type: functional, cell-based
[5] = Half life in human plasma at 50 uM by LC-MS analysis; type: ADME, cell-free
[6] = Drug conversion in serum of BALB/c nude mouse xenografted with human MCF7 cells assessed as PTX formation at 8 to 12 umol/kg, ip measured after 2 hrs by LC-MS analysis; type: ADME, organism-based; details: in vivo, dose 8-12 µmol/kg
[7] = Drug conversion in heart of BALB/c nude mouse xenografted with human MCF7 cells assessed as T2-PTX formation at 8 to 12 umol/kg, ip measured after 2 hrs by LC-MS analysis; type: ADME, organism-based; details: in vivo, dose 8-12 µmol/kg
HEK293 = assay: Cytotoxicity against HEK293 cells assessed as reduction in cell viability measured after 48 hrs by MTT assay; type: cell-based; details: Homo sapiens, HEK293, 48 h
A2780 = assay: Cytotoxicity against human A2780 cells assessed as reduction in cell viability measured after 48 hrs by MTT assay; type: functional, cell-based; details: A2780, 48 h
[8] = Neurotoxicity in BALB/c mouse assessed as change in DOPAC level at 12 umol/kg, ip administered every two days for 14 days measured post last dose by LC-MS analysis; type: toxicity, organism-based; details: in vivo, 336 h, dose 12 µmol/kg, time 14 day
[9] = Neurotoxicity in BALB/c mouse assessed as change in noradrenaline level at 12 umol/kg, ip administered every two days for 14 days measured post last dose by LC-MS analysis; type: toxicity, organism-based; details: in vivo, 336 h, dose 12 µmol/kg, time 14 day
MCF7 [10] = assay: Antitumor activity against human MCF7 cells xenografted in BALB/c nude mouse assessed as reduction in tumor volume at 8 umol/kg, ip administered every two days for two weeks relative to control; type: functional; design: scale not given: the % may be the effect or the level left; details: dose 8 µmol/kg; time 2 weeks
MCF7 [11] = assay: Cytotoxicity against human MCF7 cells assessed as reduction in cell viability measured after 48 hrs in presence of MMP inhibitor ilomastat and LHRH by MTT assay; type: functional, cell-based
[12] = Toxicity in human MCF7 cells xenografted in BALB/c nude mouse assessed as morphological changes in heart at 8 to 12 umol/kg, ip administered every two days for two weeks measured post last dose by H and E staining based histological analysis; type: organism-based; details: in vivo, 336 h, dose 8-12 µmol/kg, time 2 weeks
[13] = Drug conversion in heart of BALB/c nude mouse xenografted with human MCF7 cells assessed as PTX formation at 8 to 12 umol/kg, ip measured after 2 hrs by LC-MS analysis; type: ADME, organism-based; details: in vivo, dose 8-12 µmol/kg
HT-29 = assay: Cytotoxicity against human HT-29 cells assessed as reduction in cell viability measured after 48 hrs by MTT assay; type: functional, cell-based; details: HT-29, 48 h
[14] = Drug conversion in kidney of BALB/c nude mouse xenografted with human MCF7 cells assessed as T2-PTX formation at 8 to 12 umol/kg, ip measured after 2 hrs by LC-MS analysis; type: ADME, organism-based; details: in vivo, dose 8-12 µmol/kg
MCF7 [15] = assay: Antitumor activity against human MCF7 cells xenografted in BALB/c nude mouse assessed as reduction in tumor weight at 8 umol/kg, ip administered every two days for two weeks relative to control; type: functional; design: scale not given: the % may be the effect or the level left; details: dose 8 µmol/kg; time 2 weeks
[16] = Drug conversion in tumor of BALB/c nude mouse xenografted with human MCF7 cells assessed as PTX formation at 8 to 12 umol/kg, ip measured after 2 hrs by LC-MS analysis; type: ADME, organism-based, Neoplasm; details: in vivo, dose 8-12 µmol/kg
MCF7 [17] = assay: Induction of apoptosis in human MCF7 cells xenografted in ip dosed BALB/c nude mouse assessed as down regulation of Bcl2 expression administered every two days for two weeks measured post last dose by Western blot analysis; type: functional, organism-based; details: dose 8-12 µmol/kg, time 2.0 weeks
MCF7 [18] = assay: Antitumor activity against human MCF7 cells xenografted in BALB/c nude mouse assessed as reduction in tumor weight at 12 umol/kg, ip administered every two days for two weeks relative to control; type: functional; design: scale not given: the % may be the effect or the level left; details: dose 12 µmol/kg; time 2 weeks
[19] = Neurotoxicity in BALB/c mouse assessed as change in histidine level at 12 umol/kg, ip administered every two days for 14 days measured post last dose by LC-MS analysis; type: toxicity, organism-based; details: in vivo, 336 h, dose 12 µmol/kg, time 14 day
[20] = Neurotoxicity in BALB/c mouse assessed as increase in pain sensitivity at 12 umol/kg, ip administered every two days for 14 days by hot water tail immersion test; type: toxicity, organism-based; details: in vivo, 336 h, dose 12 µmol/kg, time 14 day
[21] = Drug conversion in tumor of BALB/c nude mouse xenografted with human MCF7 cells assessed as T2-PTX formation at 8 to 12 umol/kg, ip measured after 2 hrs by LC-MS analysis; type: ADME, organism-based, Neoplasm; details: in vivo, dose 8-12 µmol/kg
MCF7 [22] = assay: Antimigratory activity against human MCF7 cells at 1.8 nM measured after 48 hrs by scratch wound-healing assay; type: functional, cell-based
[23] = Neurotoxicity in BALB/c mouse assessed as change in serotonin level at 12 umol/kg, ip administered every two days for 14 days measured post last dose by LC-MS analysis; type: toxicity, organism-based; details: in vivo, 336 h, dose 12 µmol/kg, time 14 day
[24] = Drug uptake in human MCF7 cells at 20 nM measured after 4 hrs in presence of MMP inhibitor ilomastat by LC-MS analysis; type: ADME, cell-based; details: mcf7, 4 h, 0.02 µM
[25] = Neurotoxicity in BALB/c mouse assessed as change in dopamine level at 12 umol/kg, ip administered every two days for 14 days measured post last dose by LC-MS analysis; type: toxicity, organism-based; details: in vivo, 336 h, dose 12 µmol/kg, time 14 day
[26] = Drug conversion in serum of BALB/c nude mouse xenografted with human MCF7 cells assessed as T2-PTX formation at 8 to 12 umol/kg, ip measured after 2 hrs by LC-MS analysis; type: ADME, organism-based; details: in vivo, dose 8-12 µmol/kg
[27] = Drug conversion in liver of BALB/c nude mouse xenografted with human MCF7 cells assessed as PTX formation at 8 to 12 umol/kg, ip measured after 2 hrs by LC-MS analysis; type: ADME, organism-based; details: in vivo, dose 8-12 µmol/kg
[28] = Neurotoxicity in BALB/c mouse assessed as change in acetylcholine level at 12 umol/kg, ip administered every two days for 14 days measured post last dose by LC-MS analysis; type: toxicity, organism-based; details: in vivo, 336 h, dose 12 µmol/kg, time 14 day
[29] = Drug conversion in kidney of BALB/c nude mouse xenografted with human MCF7 cells assessed as PTX formation at 8 to 12 umol/kg, ip measured after 2 hrs by LC-MS analysis; type: ADME, organism-based; details: in vivo, dose 8-12 µmol/kg
[30] = Toxicity in human MCF7 cells xenografted in BALB/c nude mouse assessed as morphological changes in lung at 8 to 12 umol/kg, ip administered every two days for two weeks measured post last dose by H and E staining based histological analysis; type: organism-based; details: in vivo, 336 h, dose 8-12 µmol/kg, time 2 weeks
[31] = Drug uptake in human MCF7 cells at 20 nM measured after 4 hrs in presence of LHRH by LC-MS analysis; type: ADME, cell-based; details: mcf7, 4 h, 0.02 µM
MCF7 [32] = assay: Cytotoxicity against human MCF7 cells assessed as reduction in cell viability measured after 48 hrs by MTT assay; type: functional, cell-based; details: MCF7, 48 h

Sequence of 72 kDa type IV collagenase (P08253 whole entry): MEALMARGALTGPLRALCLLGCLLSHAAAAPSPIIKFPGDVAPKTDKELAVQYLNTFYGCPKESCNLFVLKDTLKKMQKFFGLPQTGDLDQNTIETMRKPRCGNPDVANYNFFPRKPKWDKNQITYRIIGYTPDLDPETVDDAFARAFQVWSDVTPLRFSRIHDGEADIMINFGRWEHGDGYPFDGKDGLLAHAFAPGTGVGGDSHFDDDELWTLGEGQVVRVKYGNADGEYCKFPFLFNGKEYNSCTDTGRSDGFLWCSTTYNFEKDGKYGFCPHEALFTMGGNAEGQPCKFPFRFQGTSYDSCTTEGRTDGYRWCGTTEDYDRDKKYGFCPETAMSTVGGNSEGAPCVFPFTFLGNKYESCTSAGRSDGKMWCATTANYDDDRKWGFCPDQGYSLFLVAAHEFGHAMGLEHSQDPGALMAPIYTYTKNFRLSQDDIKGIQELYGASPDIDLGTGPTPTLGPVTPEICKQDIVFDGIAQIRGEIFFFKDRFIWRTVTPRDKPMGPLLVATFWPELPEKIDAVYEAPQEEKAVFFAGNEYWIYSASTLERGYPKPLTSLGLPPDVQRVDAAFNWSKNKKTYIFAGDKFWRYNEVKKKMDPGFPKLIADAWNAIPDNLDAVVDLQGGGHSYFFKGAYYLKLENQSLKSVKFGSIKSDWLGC

## CC(=O)O[C@H]1C(=O)[C@@]2(C)[C@H]([C@H](OC(=O)c3ccccc3)[C@]3(O)C[C@H](OC(=O)[C@H](OC(=O)OCCSSC[C@H](N)C(=O)N[C@@H](CC(C)C)C(=O)N[C@@H](CC(C)C)C(=O)N[C@@H](CCCCN)C(=O)N[C@@H](CCCNC(=N)N)C(=O)N[C@@H](Cc4ccccc4)C(=O)N[C@@H](Cc4ccccc4)C(=O)N[C@@H](CCCCN)C(=O)N[C@@H](CCCCN)C(=O)N[C@@H](Cc4ccccc4)C(=O)NCC(=O)N[C@@H](C)C(=O)N[C@@H](CC(C)C)C(=O)NCC(=O)N[C@@H](CC(C)C)C(=O)N4CCC[C@H]4C(=O)NCC(=O)N4CCC[C@H]4C(=O)N[C@@H](CCCNC(=N)N)C(=O)N[C@@H](CC(C)C)C(=O)NCC(=O)N[C@@H](Cc4ccc(O)cc4)C(=O)N[C@@H](CO)C(=O)N[C@@H](Cc4c[nH]c5ccccc45)C(=O)N[C@@H](CCCCN)C(=O)NC(=O)C4CCC(=O)N4)[C@@H](NC(=O)c4ccccc4)c4ccccc4)C(C)=C1C3(C)C)[C@]1(OC(C)=O)CO[C@@H]1C[C@@H]2O (stereo not given in full) (H-C(X1)LLKRFFKKFGALGLPGPRLGYSW-X2)
[1]
  Drug metabolism: Metabolite_Detected
[2]
  Activity: Non-Toxic
MCF7 [3]
  Activity: Dose-dependent effect
MCF7 [4]
  Activity: Active
[5]
  half-life at 50 µM: 2 h
[6]
  Drug metabolism: Metabolite_Notdetected
[7]
  Drug metabolism: Metabolite_Notdetected
HEK293
  IC50: 66 nM
A2780
  IC50: 8.3 nM
[8]
  Activity: Non-Toxic
[9]
  Activity: Non-Toxic
MCF7 [10]
  Activity: 77.2%
MCF7 [11]
  Activity: inactive
[12]
  Activity: Non-Toxic
[13]
  Drug metabolism: Metabolite_Notdetected
HT-29
  IC50: 5.6 nM
[14]
  Drug metabolism: Metabolite_Notdetected
MCF7 [15]
  Activity: 67.1%
[16]
  Drug metabolism: Metabolite_Detected
MCF7 [17]
  Activity: Dose-dependent effect
MCF7 [18]
  Activity: 83.4%
[19]
  Activity: Non-Toxic
[20]
  Activity: Non-Toxic
[21]
  Drug metabolism: Metabolite_Detected
MCF7 [22]
  Activity: Active
[23]
  Activity: Non-Toxic
[24]
  Drug uptake: Active
[25]
  Activity: Non-Toxic
[26]
  Drug metabolism: Metabolite_Notdetected
[27]
  Drug metabolism: Metabolite_Notdetected
[28]
  Activity: Non-Toxic
[29]
  Drug metabolism: Metabolite_Notdetected
[30]
  Activity: Non-Toxic
[31]
  Drug uptake: Active
MCF7 [32]
  IC50: 3.8 nM
